Assays:
[1] = tested on: differentiated 3T3-L1 adipocyte cells; experiment: Nile Red detection of lipid droplets (intensity, size, number) in adipocytes; type: cell-based
Description: The culture, the differentiation of 3T3-L1 cells, then the treatment with the compounds to be tested are performed as in example 2. The lipid detection is performed using Nile Red fluorescent stain, a phenoxazone that intensely labels the intracellular lipids. The color of the fluorescence observed is directly dependent upon the hydrophobicity of the surrounding medium. This specific property of Nile Red makes it possible to differentiate neutral lipids, labeled in gold-yellow, from phospholipids, labeled in red. […] The cells are examined with the fluorescence microscope. The quantification and statistical analysis are performed as in example 2.

aquaglyceroporin 7 = experiment: Immuno-detection of aquaglyceroporin 7 expression in differentiated 3T3-L1 adipocyte cells; type: cell-based; conditions: differentiated 3T3-L1 cells; with respect to untreated control; carob extract 1% daily for 12 days, caffeine 2 mM for 5 hours
Description: 3T3-L1 adipocyte cells are cultivated in a DMEM medium with 4.5 g/l glucose, 2 mM glutamine and 10% fetal bovine serum. Two days after the cell confluence phase, the differentiation of 3T3-L1 cells into adipocytes is induced by adding a solution of 0.5 mM of IBMX, 1 μM of dexamethasone and 10 μg/ml of insulin (Sigma, St. Louis, Mo., USA) in the culture medium for 3 days. Then, only the insulin is kept for 3 to 4 days of additional culture. The cells are then kept in culture, in a standard medium, for another 3 days. The treatment is performed from the start of the differentiation induction phase by a daily application, for 12 days, of 1×PBS (Lonza, Rockland, Me., USA) for the untreated control, carob germ extract with a dry weight of 2.5 g/kg as obtained in example 1, diluted to 1% in PBS, or carob germ extract as obtained in example 1, diluted to 1% in PBS and to which 2 mM of caffeine is added for the last 5 hours of the treatment. A 5-hour treatment with 2 mM of caffeine was also performed. […] The cell membranes are permeabilized with acetone for 4 minutes at -20° C. The non-specific sites are saturated with 3% bovine serum albumin (Sigma-Aldrich, […], Germany) for 15 minutes. […] Three images for each condition are analyzed using the Image-Pro Analyzer 6.3 software. […]

[2] = with respect to untreated cells

Cn1c(=O)c2c(ncn2C)n(C)c1=O [Caffeine, caffeine]
Average droplet size ([1]; differentiated 3T3-L1 cells): 109.55 μm^2
Number of droplets ([1]; differentiated 3T3-L1 cells): 219
Intensity of the Nile Red labeling, Ratio ([1]; differentiated 3T3-L1 cells, carob extract 1% 12 days, caffeine 2 mM 5 hours): 180.47 Pixels/μm^2
intensity of the Nile Red labeling, size and number of droplets (in words) ([1]; with respect to the untreated cells): reduced
Droplet size, % reduction [1, 2]: −17.40%
Intensity of the Nile Red labeling, % reduction [1, 2]: −37.36%
Number of droplets, % reduction [1, 2]: −18%
increase in fluorescence (aquaglyceroporin 7 immunolabeling) (aquaglyceroporin 7): 12.6%

— patent US9962329B2, “Cosmetic use of the combination of a carob germ extract and caffeine as a slimming active agent” (ISP INVESTMENTS INC., priority 2012, dated 2018)
